Values quoted from earlier work, collected in patent US20240261272A1, “LPA1 ANTAGONISTS FOR TREATING INTERSTITIAL LUNG DISEASE” (Bristol-Myers Squibb Company, priority 2022, published 2024).

How the values were obtained:
patients with IPF = details: cited from earlier work
patients with PPF = details: 52-week study period; cited from earlier work

Row | SMILES | decline in lung function (in words) (patients with IPF) | progression of lung fibrosis, annual rate of decline in FVC versus placebo (in words) (patients with PPF)
1 | COC(=O)c1ccc2c(c1)NC(=O)/C2=C(\Nc1ccc(N(C)C(=O)CN2CCN(C)CC2)cc1)c1ccccc1 [nintedanib] | significantly reduce the decline in lung function | slower progression of lung fibrosis than those who received placebo
2 | Cc1ccc(=O)n(-c2ccccc2)c1 [pirfenidone] | significantly reduce the decline in lung function | –
